Read-outs that look alike come from different tables or passages of the source.
Key:
[1] = molecular target: human NK1 receptor (Homo sapiens, UniProt P25103); test: NK1 receptor binding, [3H]substance P displacement, CHO cell membranes
[2] = molecular target: T1, Recombinant human NK3 (hNK3) receptor (Homo sapiens, UniProt P29371); test: NK3 receptor binding, [3H]SR142801 displacement, membrane preparations
T1 construct: expressed in transfected cells
T1 sequence (P29371 1-465): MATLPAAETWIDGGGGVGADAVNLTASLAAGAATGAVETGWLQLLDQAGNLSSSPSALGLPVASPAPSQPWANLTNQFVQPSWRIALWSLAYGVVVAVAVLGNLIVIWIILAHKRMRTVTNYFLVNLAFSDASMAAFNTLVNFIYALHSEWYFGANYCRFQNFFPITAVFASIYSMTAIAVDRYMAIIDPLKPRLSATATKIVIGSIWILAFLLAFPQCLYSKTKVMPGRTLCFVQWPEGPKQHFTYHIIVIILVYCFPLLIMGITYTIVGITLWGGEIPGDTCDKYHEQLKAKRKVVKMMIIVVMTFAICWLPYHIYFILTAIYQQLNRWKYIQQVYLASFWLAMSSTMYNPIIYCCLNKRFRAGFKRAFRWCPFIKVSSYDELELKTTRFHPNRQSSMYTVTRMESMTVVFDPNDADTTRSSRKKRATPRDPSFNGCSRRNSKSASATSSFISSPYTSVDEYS
Method: Non specific binding was determined using 10 μM SB222200. Assay buffer consisted of Tris-HCl (50 mM, pH 7.4), BSA (0.1%), MnCl2 (4 mM) and phosphoramidon (1 μM). Membrane preparations of hNK3 receptors (approximately 2.5 μg/well in a 96 well plate) were used to initiate the incubation for 90 min at room temperature. This assay was terminated by rapid filtration under vacuum through GF/C filters, presoaked for 90 min with PEI (0.3%), with 3×0.5 ml washes of ice-cold Tris buffer (50 mM, pH 7.4) containing 0.1% BSA. The radioactivity retained on the filters was measured by scintillation counting. All assays were performed in duplicate in at least two separate experiments.

[3] = first value of the cell pKi NK1/NK3, human NK1 receptor, [3H]substance P
[4] = second value of the cell pKi NK1/NK3, hNK3 receptor, [3H]SR142801
[5] = first value of the cell NK1/NK3, read-out: pKi NK1 (converted)
[6] = second value of the cell NK1/NK3, read-out: pKi NK3 (converted)

human NK1 receptor, sequence (P25103 whole entry): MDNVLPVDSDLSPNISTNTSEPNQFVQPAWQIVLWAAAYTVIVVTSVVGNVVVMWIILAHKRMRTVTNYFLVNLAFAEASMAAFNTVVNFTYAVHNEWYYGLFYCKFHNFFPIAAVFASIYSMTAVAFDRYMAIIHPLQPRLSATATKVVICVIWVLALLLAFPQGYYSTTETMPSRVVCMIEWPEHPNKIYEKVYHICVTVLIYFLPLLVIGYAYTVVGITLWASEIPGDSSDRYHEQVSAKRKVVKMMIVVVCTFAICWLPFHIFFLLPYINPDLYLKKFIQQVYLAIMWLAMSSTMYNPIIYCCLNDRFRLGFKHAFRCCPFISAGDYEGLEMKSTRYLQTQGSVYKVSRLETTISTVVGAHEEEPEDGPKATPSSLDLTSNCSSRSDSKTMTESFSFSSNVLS

SMILES | Ki [1, 3] [nM] | Ki [2, 4] [nM] | Ki [1, 5] [nM] | Ki [2, 6] [nM]
CCN(C(C)=O)C1CCN(c2cc(-c3ccccc3Cl)c(N(C)C(=O)C(C)(C)c3cc(C(F)(F)F)cc(C(F)(F)F)c3)cn2)C1 (racemic) [Example 45, (RS)-N-[6-[3-(Acetyl-ethyl-amino)-pyrrolidin-1-yl]-4-(2-chloro-phenyl)-pyridin-3-yl]-2-(3,5-bis-trifluoromethyl-phenyl)-N-methyl-isobutyramide] | 2.29 | 2 |  | 
CN(C(=O)C(C)(C)c1cc(C(F)(F)F)cc(C(F)(F)F)c1)c1cnc(N2CCC[C@H]2CO)cc1-c1ccc(Cl)c(Cl)c1 [Example 286, (S)-2-(3,5-Bis-trifluoromethyl-phenyl)-N-[4-(3,4-dichloro-phenyl)-6-(2-hydroxymethyl-pyrrolidin-1-yl)-pyridin-3-yl]-N-methyl-isobutyramide] |  |  | 1.35 | 3.72
CN(C(=O)C(C)(C)c1cc(C(F)(F)F)cc(C(F)(F)F)c1)c1cnc(N2C[C@H](O)C[C@H]2CO)cc1-c1cccc(F)c1 [Example 207, (2S,4R)-2-(3,5-Bis-trifluoromethyl-phenyl)-N-[4-(3-fluoro-phenyl)-6-(4-hydroxy-2-hydroxymethyl-pyrrolidin-1-yl)-pyridin-3-yl]-N-methyl-isobutyramide] |  |  | 1.38 | 4.68
CN(C(=O)C(C)(C)c1cc(C(F)(F)F)cc(C(F)(F)F)c1)c1cnc(N2C[C@H](O)C[C@H]2CO)cc1-c1ccccc1S(C)(=O)=O [Example 218, (2S,4R)-2-(3,5-Bis-trifluoromethyl-phenyl)-N-[6-(4-hydroxy-2-hydroxymethyl-pyrrolidin-1-yl)-4-(2-methanesulfonyl-phenyl)-pyridin-3-yl]-N-methyl-isobutyramide] |  |  | 2.63 | 7.24
CC(=O)NCCNc1cc(-c2ccccc2Cl)c(N(C)C(=O)C(C)(C)c2cc(C(F)(F)F)cc(C(F)(F)F)c2)cn1 [Example 90, N-[6-(2-Acetylamino-ethylamino)-4-(2-chloro-phenyl)-pyridin-3-yl]-2-(3,5-bis-trifluoromethyl-phenyl)-N-methyl-isobutyramide] | 1.78 | 6.03 |  | 
CN(C(=O)C(C)(C)c1cc(C(F)(F)F)cc(C(F)(F)F)c1)c1cnc(N2C[C@@H](O)C[C@H]2CO)cc1-c1ccc(Cl)c(Cl)c1 [Example 252, (2S,4S)-2-(3,5-Bis-trifluoromethyl-phenyl)-N-[4-(3,4-dichloro-phenyl)-6-(4-hydroxy-2-hydroxymethyl-pyrrolidin-1-yl)-pyridin-3-yl]-N-methyl-isobutyramide] |  |  | 1.66 | 6.17
CC(=O)N[C@H]1CCN(c2cc(-c3ccccc3Cl)c(N(C)C(=O)C(C)(C)c3cc(C(F)(F)F)cc(C(F)(F)F)c3)cn2)C1 [Example 43, (S)-N-[6-(3-Acetylamino-pyrrolidin-1-yl)-4-(2-chloro-phenyl)-pyridin-3-yl]-2-(3,5-bis-trifluoromethyl-phenyl)-N-methyl-isobutyramide] | 2.4 | 35.5 |  | 
Cc1cc(C)cc(C(C)(C)C(=O)N(C)c2cnc(N3C[C@H](O)C[C@H]3CO)cc2-c2ccccc2Cl)c1 [Example 10, (2S,4R)-N-[4-(2-Chloro-phenyl)-6-(4-hydroxy-2-hydroxymethyl-pyrrolidin-1-yl)-pyridin-3-yl]-2-(3,5-dimethyl-phenyl)-N-methyl-isobutyramide] | 2.14 | 3.63 |  | 
CN(C(=O)C(C)(C)c1cc(C(F)(F)F)cc(C(F)(F)F)c1)c1cnc(N2CCC[C@H]2CO)cc1-c1ccc(F)cc1 [Example 288, (S)-2-(3,5-Bis-trifluoromethyl-phenyl)-N-[4-(4-fluoro-phenyl)-6-(2-hydroxymethyl-pyrrolidin-1-yl)-pyridin-3-yl]-N-methyl-isobutyramide] |  |  | 2.63 | 2.51
Cc1ccccc1-c1cc(N2C[C@H](O)C[C@H]2CO)ncc1N(C)C(=O)C(C)(C)c1cc(C(F)(F)F)cc(C(F)(F)F)c1 [Example 216, (2S,4R)-2-(3,5-Bis-trifluoromethyl-phenyl)-N-[6-(4-hydroxy-2-hydroxymethyl-pyrrolidin-1-yl)-4-o-tolyl-pyridin-3-yl]-N-methyl-isobutyramide] |  |  | 1.35 | 0.794
CN(C(=O)C(C)(C)c1cc(C(F)(F)F)cc(C(F)(F)F)c1)c1cnc(N2C[C@@H](O)C[C@H]2CO)cc1-c1ccccc1F [Example 242, (2S,4S)-2-(3,5-Bis-trifluoromethyl-phenyl)-N-[4-(2-fluoro-phenyl)-6-(4-hydroxy-2-hydroxymethyl-pyrrolidin-1-yl)-pyridin-3-yl]-N-methyl-isobutyramide] |  |  | 1.32 | 6.92
Cc1cc(-c2cc(N3C[C@@H](O)C[C@H]3CO)ncc2N(C)C(=O)C(C)(C)c2cc(C(F)(F)F)cc(C(F)(F)F)c2)ccc1F [Example 248, (2S,4S)-2-(3,5-Bis-trifluoromethyl-phenyl)-N-[4-(4-fluoro-3-methyl-phenyl)-6-(4-hydroxy-2-hydroxymethyl-pyrrolidin-1-yl)-pyridin-3-yl]-N-methyl-isobutyramide] |  |  | 2.19 | 27.5
Cc1c(F)cccc1-c1cc(N2C[C@H](O)C[C@H]2CO)ncc1N(C)C(=O)C(C)(C)c1cc(C(F)(F)F)cc(C(F)(F)F)c1 [Example 228, (2S,4R)-2-(3,5-Bis-trifluoromethyl-phenyl)-N-[4-(3-fluoro-2-methyl-phenyl)-6-(4-hydroxy-2-hydroxymethyl-pyrrolidin-1-yl)-pyridin-3-yl]-N-methyl-isobutyramide] |  |  | 1.17 | 1.41
Cc1cc(F)ccc1-c1cc(NCCO)ncc1N(C)C(=O)C(C)(C)c1cc(Cl)cc(Cl)c1 [Example 21, 2-(3,5-Dichloro-phenyl)-N-[4-(4-fluoro-2-methyl-phenyl)-6-(2-hydroxy-ethylamino)-pyridin-3-yl]-N-methyl-isobutyramide] | 1.29 | 8.71 |  | 
Cc1cc(F)ccc1-c1cc(N2CCC(S(C)(=O)=O)C2)ncc1N(C)C(=O)C(C)(C)c1cc(C(F)(F)F)cc(C(F)(F)F)c1 (racemic) [Example 170, (RS)-2-(3,5-Bis-trifluoromethyl-phenyl)-N-[4-(4-fluoro-2-methyl-phenyl)-6-(3-methanesulfonyl-pyrrolidin-1-yl)-pyridin-3-yl]-N-methyl-isobutyramide] | 1.95 | 9.12 |  | 
Cc1ccc(-c2cc(N3C[C@H](O)C[C@H]3CO)ncc2N(C)C(=O)C(C)(C)c2cc(C(F)(F)F)cc(C(F)(F)F)c2)cc1F [Example 210, (2S,4R)-2-(3,5-Bis-trifluoromethyl-phenyl)-N-[4-(3-fluoro-4-methyl-phenyl)-6-(4-hydroxy-2-hydroxymethyl-pyrrolidin-1-yl)-pyridin-3-yl]-N-methyl-isobutyramide] |  |  | 2.29 | 13.8
CN(C(=O)C(C)(C)c1cc(C(F)(F)F)cc(C(F)(F)F)c1)c1cnc(N2CCC[C@@H]2CO)cc1-c1ccc(Cl)c(Cl)c1 [Example 95, (R)-2-(3,5-Bis-trifluoromethyl-phenyl)-N-[4-(3,4-dichloro-phenyl)-6-(2-hydroxymethyl-pyrrolidin-1-yl)-pyridin-3-yl]-N-methyl-isobutyramide] | 3.8 | 9.33 |  | 
CN(C(=O)C(C)(C)c1cc(C(F)(F)F)cc(C(F)(F)F)c1)c1cnc(N2CC[C@H](O)[C@H]2CO)cc1-c1ccc(Cl)cc1Cl [Example 137, (2R,3S)-2-(3,5-Bis-trifluoromethyl-phenyl)-N-[4-(2,4-dichloro-phenyl)-6-(3-hydroxy-2-hydroxymethyl-pyrrolidin-1-yl)-pyridin-3-yl]-N-methyl-isobutyramide] | 2.82 | 1.35 |  | 
CN(C(=O)C(C)(C)c1cc(C(F)(F)F)cc(C(F)(F)F)c1)c1cnc(N2CC[C@H](O)[C@H]2CO)cc1-c1ccccc1 [Example 265, (2R,3S)-2-(3,5-Bis-trifluoromethyl-phenyl)-N-[6-(3-hydroxy-2-hydroxymethyl-pyrrolidin-1-yl)-4-phenyl-pyridin-3-yl]-N-methyl-isobutyramide] |  |  | 1.45 | 4.9
CN(C(=O)C(C)(C)c1cc(C(F)(F)F)cc(C(F)(F)F)c1)c1cnc(N2CCC[C@@H](O)[C@H]2CO)cc1-c1ccccc1Cl (racemic) [Example 195, (2RS,3RS)-2-(3,5-Bis-trifluoromethyl-phenyl)-N-[4′-(2-chloro-phenyl)-3-hydroxy-2-hydroxymethyl-3,4,5,6-tetrahydro-2H-[1,2′]bipyridinyl-5′-yl]-N-methyl-isobutyramide] | 1.82 | 28.8 |  | 
Cc1ccccc1-c1cc(N2CCC[C@H]2CO)ncc1N(C)C(=O)C(C)(C)c1cc(C(F)(F)F)cc(C(F)(F)F)c1 [Example 279, (S)-2-(3,5-Bis-trifluoromethyl-phenyl)-N-[6-(2-hydroxymethyl-pyrrolidin-1-yl)-4-o-tolyl-pyridin-3-yl]-N-methyl-isobutyramide] |  |  | 2.82 | 1.17

Source: patent publication US8404708B2, “Dual NK1/NK3 receptor antagonists” (Hoffmann-La Roche Inc., priority 2004, dated 2013)
